Reference: PubChem BioAssay AID248 (DTP/NCI, 2004)
Inconclusive results and toxic doses are left out. Cut-off read from the data, not from the text of the source: active = T/C of 150% or more; inactive = T/C below 125%.

System: L1210 leukemia ip in BDF1 mice, survival T/C
Assay: NCI In Vivo Anticancer Drug Screen. Data for tumor model L1210 Leukemia (intraperitoneal) in B6D2F1 (BDF1) mice
Conditions: endpoint: mean survival time, higher = longer survival
In short: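 Survival endpoint. Drug-treated group vs vehicle group, expressed as T divided by C. Tumor passaged by transplantation.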

[1] = dose: 100.0 mg/kg/injection, schedule: Q04DX003 (ip), vehicle: saline with Tween-80
[2] = dose: 200.0 mg/kg/injection, schedule: Q04DX003 (ip), vehicle: saline with Tween-80
[3] = dose: 400.0 mg/kg/injection, schedule: Q04DX003 (ip), vehicle: saline with Tween-80
[4] = dose: 100.0 mg/kg/injection, schedule: Q01DX001 (ip), vehicle: other
[5] = dose: 200.0 mg/kg/injection, schedule: Q01DX001 (ip), vehicle: other
[6] = dose: 400.0 mg/kg/injection, schedule: Q01DX001 (ip), vehicle: other

Measured: T/C

CCS(=O)(=O)c1ccc(NC(=O)Oc2ccccc2OC)cc1
inactive: dose: 100.0 mg/kg/injection, schedule: Q01DX001 (ip), vehicle: carboxymethylcellulose (CMC) 89 % of control | dose: 200.0 mg/kg/injection, schedule: Q01DX001 (ip), vehicle: carboxymethylcellulose (CMC) 100 % of control | dose: 400.0 mg/kg/injection, schedule: Q01DX001 (ip), vehicle: carboxymethylcellulose (CMC) 100 % of control

c1cc[c]([Sn]([c]2ccccc2)([c]2ccccc2)[n]2cnc3cncnc32)cc1
inactive: dose: 5.0 mg/kg/injection, schedule: Q01DX001 (ip), vehicle: other 111 % of control | dose: 10.0 mg/kg/injection, schedule: Q01DX001 (ip), vehicle: other 100 % of control

COc1cc(C)c(OC)c(CCl)c1C
inactive: [1] 97 % of control | [2] 98 % of control | [3] 92 % of control

CC1(C)N=CN=C(N)N1c1ccc(CCC(=O)Nc2ccc(S(=O)(=O)F)cc2)c(Cl)c1
inactive: [1] 114 % of control | [2] 112 % of control | [3] 109 % of control

CC/C=C(CC)/C(CC)=C(\Br)CC
inactive: dose: 100.0 mg/kg/injection, schedule: Q04DX003 (ip), vehicle: saline 94 % of control | dose: 200.0 mg/kg/injection, schedule: Q04DX003 (ip), vehicle: saline 92 % of control

CC(C)COC(=O)c1cccc2c1-c1ccccc1C2=O
inactive: [4] 96 % of control | [5] 87 % of control | [6] 98 % of control

CCOc1ccc(/C=N/NS(=O)(=O)c2ccccc2)cc1OC
inactive: dose: 100.0 mg/kg/injection, schedule: Q01DX009 (ip), vehicle: saline with Tween-80 94 % of control | dose: 100.0 mg/kg/injection, schedule: Q04DX003 (ip), vehicle: saline sonified 107 % of control | dose: 200.0 mg/kg/injection, schedule: Q01DX009 (ip), vehicle: saline with Tween-80 98 % of control | dose: 200.0 mg/kg/injection, schedule: Q04DX003 (ip), vehicle: saline sonified 86 % of control | dose: 400.0 mg/kg/injection, schedule: Q01DX009 (ip), vehicle: saline with Tween-80 89 % of control | dose: 400.0 mg/kg/injection, schedule: Q04DX003 (ip), vehicle: saline sonified 98 % of control

CCOC(=O)c1cc2cc(CC)ccc2[nH]1
inactive: [4] 102 % of control | [5] 95 % of control | [6] 95 % of control
